Article PMC10518255, “A first-in-class pan-lysyl oxidase inhibitor impairs stromal remodeling and enhances gemcitabine response and survival in pancreatic cancer” (Nature Cancer, 2023)
Several values for one entry are separate records, joined by “and”; a condition that tells them apart may be missing. Identical values can stand only once.

System: TKCC10 human PDX tumors
Test: TKCC10 human model, picrosirius red birefringence after three rounds of therapy (Extended Data Fig. 5d)
Assay type: in vivo, mouse
Conditions: for Quantification of red birefringent (mature) collagen fibres: Extended Data 5D, human PDXs at endpoint after 3 cycles of treatment, individual replicates
Procedure: Subcutaneous PDX studies were performed by implanting early passage PDX pieces (~4 mm^3) or TKCC10 CCs (1.5 × 10^6 cells per mouse in 100 μl PBS/Matrigel 1:1) into female (PDX) or male (TKCC10) 8-week-old immunocompromised nude Balb/c-Fox1nuAusb mice subcutaneously on the left flank. For the duration of the study, mice were kept in conventional caging with environmental enrichment, access to standard chow, water ad libitum and 12-h light–dark cycle at ambient temperature and humidity. Treatment began when tumors reached 150 mm^3, where each mouse was randomized into a treatment group and administered gemcitabine HCl (100 mg kg^−1 in saline) (Jomar Life Research) or vehicle control (0.9% saline) by i.p. injection twice weekly on day 2 and 4 of the treatment cycle until an ethical end point was reached. These included maximal tumor mass ≥10% of body weight, weight loss ≥20% from maximum body weight or tumor interfering with mobility and affecting access to food and water. Animals with non-tumor-related complications that led to a premature end point were censored. […] Tumor size was monitored every second day by calipers. Tumor volume was calculated using the formula (length × width^2)/2. […]
Extended Data Fig. 5 PXS-5505 in combination with gemcitabine in vivo. a. […] Signal is defined as the enzyme activity in the aorta, while noise is measured in the presence of a high concentration (300 µM) BAPN to abolish any lysyl oxidase family activity. […] FITC-dextran (molecular weight: 10 kDa) signal quantification from KPC tumor end point from each treatment group (vehicle n = 3 biologically independent animals, PXS-5505 n = 5 biologically independent animals, Gem n = 5 biologically independent animals, PXS-5505 + Gem n = 5 biologically independent animals). […] P-values determined by Welchs t-test. […] Quantification of red birefringent (mature) collagen fibers from human PDXs at end point after 3 cycles of treatment, treated as indicated. […] P values determined by Welchs t-test. g. […] Quantification of green birefringent (nascent) collagen fibers from human PDXs at end point, treated as indicated. […]

| SMILES | Quantification of red birefringent (mature) collagen fibres | tumor fibrillar collagen content (picrosirius red birefringence) (TKCC10 model, three rounds of therapy) |
| --- | --- | --- |
| Cl.Cl.NC/C=C(\F)CS(=O)(=O)c1cccc2cccnc12.O [PXS-5505, (Z)-3-fluoro-4-(quinolin-8-ylsulfonyl)but-2-en-1-amine dihydrochloride monohydrate] | 965 and 112 and 188 and 2 and 295 and 380 and 3894 and 62 and 792 and 254 and 25 and 1015 and 164 and 72 and 282 and 10 and 83 (2×) and 9 and 15 and 1307 and 917 and 737 and 1467 and 503 |  |
| Nc1ccn([C@@H]2O[C@H](CO)[C@@H](O)C2(F)F)c(=O)n1 [Gem, gemcitabine] | 806 and 284 and 128 and 654 and 1145 and 167 and 291 and 56 and 399 and 263 and 1177 and 403 and 843 and 2660 and 1208 and 745 and 4462 and 5568 and 5319 and 1528 and 2340 and 4185 and 3205 and 2211 and 5904 | increases fibrillar collagen I content |
